This is an account of results in publication PMC10412585 (Nature Communications, 2023).

One assay relates to HLA-E. Description: Prometheus differential scanning fluorimetry of HLA-E with peptide. It counts as binding, human. The settings on record: refolded HLA-E*01:03/β2M 9 μg, 50x peptide to MHC ratio, high sensitivity capillary, 1 °C per minute 20-95 °C, first inflection point; DMSO control 33.8. On the procedure:
Differential scanning fluorimetry (DSF) experiments were performed with a Prometheus NanoTemper NT.48 (Munich, Germany) to measure protein stability, using intrinsic tryptophan fluorescence.
For these experiments, refolded empty HLA-E was generated. Human β2M plus a poly-histidine tag and HLA-E*01:03 extracellular α1, α2, and α3 domains plus an AviTag biotinylation tag were separately codon optimized for E. coli and cloned into the bacterial expression vector pET28a. Inclusion bodies for HLA-E and β2M were made in BL21 E. coli. Inclusion bodies were purified, homogenized, and dissolved, including denaturation in 8 M urea solution. Before refolding, each IB was mixed with an equal volume of Gdn-Cl solution (6 M Guanidine HCl, 500 mM Tris, 2 mM EDTA, 100 mM NaCl) and incubated overnight at 37 °C. β2M was injected dropwise with a 27-gauge needle into refolding buffer (100 mM pH 8.3 Tris, 400 mM L-arginine hydrochloride, 2 mM EDTA, 0.5 mM oxidized glutathione, 5 mM reduced glutathione, 0.2 mM PMSF) and incubated, stirring gently, at 4 °C for 1 h, after which an equal mass of HLA-E heavy chain was similarly injected. This solution incubated at 4 °C overnight, followed by two days of dialysis in 10 mM Tris + 50 mM NaCl. Protein was concentrated in 10 kDa molecular weight cutoff centrifugal concentrators and purified by size exclusion chromatography on an AKTAPURE FPLC (GE Healthcare, Chicago IL), using an S200 column followed by a S75 column.
Individual DSF reactions were set up with 9 μg of MHC and 100×, 50×, or 10× peptide to MHC ratio by molarity (peptides from GenScript). The final reaction volume was 20 μL and reaction mixtures were incubated at room temperature for 20–30 min.
Prometheus excitation power was set such that raw fluorescence counts were between 8000–15000 for each sample. Samples were heated at 1 °C per minute, from 20–95 °C. DSF measurements were taken in duplicate with high-sensitivity and standard capillaries. Melting temperatures were similar for a given peptide across conditions, and representative data from 50x ratio in high sensitivity capillary are presented. A secondary inflection point around 60 °C in most melts is consistent with melting of β2M[76]. […]
Supplemental Figure 9. Differential scanning fluorimetry data generated via Prometheus NanoTemper for predicted peptides with HLA-E. a) Raw 350/330 nm ratios and first derivative for samples. The second inflection point is consistent with β2M unfolding. b) Summary of Tm values for the first inflection point called by Prometheus software for these samples. […]
(DSF heats the sample and reads unfolding from a dye or from intrinsic fluorescence.)

For a further assay, the system named is NKG2C+ NK cells. Description: NK cell activation assay with peptide-pulsed RMA-S/HLA-E cells. It counts as cell-based, human. Particulars: RMA-S/HLA-E target cells, 300 µM peptide ([…] µM BFAR263-271), E:T 2:1, 6 h, flow cytometry, n = 3 (n = 2 for some) donors. As for the experimental part:
Fig. 4 NK cell stimulation assays. Assessment of effects of peptides on NK cell activity through incubation of NK cells, peptides, and (A) K562/HLA-E or (B) RMA-S/HLA-E target cells. […] Replicates for individual peptides are from different donors, with solid black lines indicating mean values. […] Representative gating for NKG2A^+/NKG2C^- and NKG2A^-/NKG2C^+ NK cells is shown in Supplemental Fig. 14. Source data are provided as a Source Data file.
In contrast to K562 cell lines which are targets for human NK cells, RMA-S cells (a TAP-deficient mouse cell line)[48] are inert to human NK cells and thus will not activate NK cells absent engagement of an activating receptor on the NK cells. […] We performed additional NK cell activation assays with RMA-S/HLA-E cells (Fig. 4B).
All analyses of human data were carried out in compliance with the relevant ethical regulations. Healthy blood donors gave informed consent at DRK Blutspendedienst Nord-Ost, Dresden, Germany, and buffy coats were obtained as approved by Charité ethics committee (EA4/059/17). PBMCs were isolated from human CMV-seropositive buffy coats by density centrifugation over Ficoll Paque Plus (GE Healthcare) and screened for the presence of NKG2C^+ NK cell expansions by flow cytometry to have sufficient frequencies of single-positive cells for parallel assessment of activation and inhibition via HLA-E[47]. Total NK cells from donors with NKG2C^+ expansions (>10% NKG2A^-/NKG2C^+ NK cells) were enriched with CD56 microbeads (Miltenyi Biotec) and cryopreserved in FBS with 10% v/v DMSO. After thawing, NK cells were washed with complete medium, stained with antibodies and Fixable Viability Dye eFluor 780 (Thermo Fisher) for 15 min at 4 °C in PBS, sorted as viable CD56^+ CD3^− cells, and rested in complete media overnight. […] Brefeldin A and Monensin (BD Biosciences) were added after a 1 h culture period. After an additional 5 h, the stimulation was stopped by centrifugation at 4 °C. Cells underwent surface staining, followed by fixation and intracellular staining using Inside Stain Kit (Miltenyi Biotec). Samples were analyzed by flow cytometry on an LSR Fortessa (BD Biosciences). Inhibition of NKG2A^+ NK cells and activation of NKG2C^+ NK cells was assessed by gating on the respective single-positive populations (Supplemental Fig. 14). Antibodies are listed in Supplemental Table 1: anti-human CD56 PE/Dazzle 594 (1:200 dilution), CD3 APC-eFluor 780 (1:50 dilution), anti-human CD159a (NKG2A) Biotin REAfinity (1:50 dilution), anti-human CD159c (NKG2C) PE REAfinity (1:100 dilution), anti-human CD107a (LAMP-1) Alexa Fluor 488 (1:400 dilution), anti-human IFN-γ PE-Vio 770 REAfinity (1:50 dilution), anti-human TNF-α Brilliant Violet 605 (1:50 dilution), anti-human CCL3 (MIP-1α) REAfinity (1:25 dilution).
For orientation: Flow cytometry measures light scatter and fluorescence of single cells or particles in a stream.

On to VMAPRTLFL [positive control], for which, in the assay with HLA-E, the Tm was found to be 51.5 °C. Further, the “NKG2C-mediated NK cell activation” value in the assay on NKG2C+ NK cells was “most potent activating peptide”.
For “VNPGRSLFL [BFAR263-271, human peptide from Bifunctional apoptosis regulator]”, in that order: 38.5 °C and “activation similar to the weaker positive control ([…]) or between the two positive controls”.
